Molecules are shown by their SMILES. The source made the active and inactive calls. No cut-off for these calls is given here. A value given as a limit tells only on which side of the number the result lay.

The target of experiment [1] is T1, Polyamine deacetylase HDAC10 (Homo sapiens, UniProt Q969S8).
T1 sequence (Q969S8 whole entry): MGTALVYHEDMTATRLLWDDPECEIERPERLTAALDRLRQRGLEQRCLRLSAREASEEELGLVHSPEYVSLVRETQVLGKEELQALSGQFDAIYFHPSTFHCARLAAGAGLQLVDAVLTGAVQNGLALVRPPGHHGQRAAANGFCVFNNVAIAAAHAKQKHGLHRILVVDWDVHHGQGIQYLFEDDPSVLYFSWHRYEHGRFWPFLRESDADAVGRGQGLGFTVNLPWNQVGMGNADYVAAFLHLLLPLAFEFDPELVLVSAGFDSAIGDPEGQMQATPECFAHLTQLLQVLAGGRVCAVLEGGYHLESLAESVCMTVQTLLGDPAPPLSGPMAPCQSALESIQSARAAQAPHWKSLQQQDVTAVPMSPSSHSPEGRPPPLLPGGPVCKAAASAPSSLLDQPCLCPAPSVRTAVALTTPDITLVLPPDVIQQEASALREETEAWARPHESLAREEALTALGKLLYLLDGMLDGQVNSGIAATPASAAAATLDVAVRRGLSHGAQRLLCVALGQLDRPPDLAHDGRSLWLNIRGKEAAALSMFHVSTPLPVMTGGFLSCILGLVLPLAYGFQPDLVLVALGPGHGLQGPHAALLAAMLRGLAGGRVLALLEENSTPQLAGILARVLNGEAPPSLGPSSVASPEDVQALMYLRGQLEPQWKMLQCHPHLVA
Put plainly: Inhibition of human recombinant HDAC10 using Ac-Arg-His-Lys (Ac)-Lys (Ac)-AMC substrate incubated for 30 mins by fluorescence assay.

In experiment [2] the target is T2, Histone deacetylase 3/Nuclear receptor corepressor 2 (HDAC3/NCoR2) (Homo sapiens, UniProt O15379). Kind of experiment: Inhibition of human recombinant HDAC3/NCoR2 using Ac-Leu-Gly-Lys (Ac)-AMC substrate incubated for 45 mins by fluorescence assay based continuous assay protocol. The class given is protein-complex assay.
T2 sequence (O15379 whole entry): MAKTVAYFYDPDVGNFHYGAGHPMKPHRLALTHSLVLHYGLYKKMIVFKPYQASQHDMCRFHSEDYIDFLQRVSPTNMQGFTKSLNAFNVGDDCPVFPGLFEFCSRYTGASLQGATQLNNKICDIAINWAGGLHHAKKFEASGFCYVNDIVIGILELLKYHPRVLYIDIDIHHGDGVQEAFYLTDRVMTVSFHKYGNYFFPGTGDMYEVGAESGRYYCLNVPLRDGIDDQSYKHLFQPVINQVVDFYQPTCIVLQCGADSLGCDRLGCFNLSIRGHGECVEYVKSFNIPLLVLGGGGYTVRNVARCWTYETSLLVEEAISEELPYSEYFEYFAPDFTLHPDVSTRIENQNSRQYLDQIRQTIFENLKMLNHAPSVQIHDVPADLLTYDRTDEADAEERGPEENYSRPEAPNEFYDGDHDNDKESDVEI
T2 sequence (Q9Y618 whole entry, further chain): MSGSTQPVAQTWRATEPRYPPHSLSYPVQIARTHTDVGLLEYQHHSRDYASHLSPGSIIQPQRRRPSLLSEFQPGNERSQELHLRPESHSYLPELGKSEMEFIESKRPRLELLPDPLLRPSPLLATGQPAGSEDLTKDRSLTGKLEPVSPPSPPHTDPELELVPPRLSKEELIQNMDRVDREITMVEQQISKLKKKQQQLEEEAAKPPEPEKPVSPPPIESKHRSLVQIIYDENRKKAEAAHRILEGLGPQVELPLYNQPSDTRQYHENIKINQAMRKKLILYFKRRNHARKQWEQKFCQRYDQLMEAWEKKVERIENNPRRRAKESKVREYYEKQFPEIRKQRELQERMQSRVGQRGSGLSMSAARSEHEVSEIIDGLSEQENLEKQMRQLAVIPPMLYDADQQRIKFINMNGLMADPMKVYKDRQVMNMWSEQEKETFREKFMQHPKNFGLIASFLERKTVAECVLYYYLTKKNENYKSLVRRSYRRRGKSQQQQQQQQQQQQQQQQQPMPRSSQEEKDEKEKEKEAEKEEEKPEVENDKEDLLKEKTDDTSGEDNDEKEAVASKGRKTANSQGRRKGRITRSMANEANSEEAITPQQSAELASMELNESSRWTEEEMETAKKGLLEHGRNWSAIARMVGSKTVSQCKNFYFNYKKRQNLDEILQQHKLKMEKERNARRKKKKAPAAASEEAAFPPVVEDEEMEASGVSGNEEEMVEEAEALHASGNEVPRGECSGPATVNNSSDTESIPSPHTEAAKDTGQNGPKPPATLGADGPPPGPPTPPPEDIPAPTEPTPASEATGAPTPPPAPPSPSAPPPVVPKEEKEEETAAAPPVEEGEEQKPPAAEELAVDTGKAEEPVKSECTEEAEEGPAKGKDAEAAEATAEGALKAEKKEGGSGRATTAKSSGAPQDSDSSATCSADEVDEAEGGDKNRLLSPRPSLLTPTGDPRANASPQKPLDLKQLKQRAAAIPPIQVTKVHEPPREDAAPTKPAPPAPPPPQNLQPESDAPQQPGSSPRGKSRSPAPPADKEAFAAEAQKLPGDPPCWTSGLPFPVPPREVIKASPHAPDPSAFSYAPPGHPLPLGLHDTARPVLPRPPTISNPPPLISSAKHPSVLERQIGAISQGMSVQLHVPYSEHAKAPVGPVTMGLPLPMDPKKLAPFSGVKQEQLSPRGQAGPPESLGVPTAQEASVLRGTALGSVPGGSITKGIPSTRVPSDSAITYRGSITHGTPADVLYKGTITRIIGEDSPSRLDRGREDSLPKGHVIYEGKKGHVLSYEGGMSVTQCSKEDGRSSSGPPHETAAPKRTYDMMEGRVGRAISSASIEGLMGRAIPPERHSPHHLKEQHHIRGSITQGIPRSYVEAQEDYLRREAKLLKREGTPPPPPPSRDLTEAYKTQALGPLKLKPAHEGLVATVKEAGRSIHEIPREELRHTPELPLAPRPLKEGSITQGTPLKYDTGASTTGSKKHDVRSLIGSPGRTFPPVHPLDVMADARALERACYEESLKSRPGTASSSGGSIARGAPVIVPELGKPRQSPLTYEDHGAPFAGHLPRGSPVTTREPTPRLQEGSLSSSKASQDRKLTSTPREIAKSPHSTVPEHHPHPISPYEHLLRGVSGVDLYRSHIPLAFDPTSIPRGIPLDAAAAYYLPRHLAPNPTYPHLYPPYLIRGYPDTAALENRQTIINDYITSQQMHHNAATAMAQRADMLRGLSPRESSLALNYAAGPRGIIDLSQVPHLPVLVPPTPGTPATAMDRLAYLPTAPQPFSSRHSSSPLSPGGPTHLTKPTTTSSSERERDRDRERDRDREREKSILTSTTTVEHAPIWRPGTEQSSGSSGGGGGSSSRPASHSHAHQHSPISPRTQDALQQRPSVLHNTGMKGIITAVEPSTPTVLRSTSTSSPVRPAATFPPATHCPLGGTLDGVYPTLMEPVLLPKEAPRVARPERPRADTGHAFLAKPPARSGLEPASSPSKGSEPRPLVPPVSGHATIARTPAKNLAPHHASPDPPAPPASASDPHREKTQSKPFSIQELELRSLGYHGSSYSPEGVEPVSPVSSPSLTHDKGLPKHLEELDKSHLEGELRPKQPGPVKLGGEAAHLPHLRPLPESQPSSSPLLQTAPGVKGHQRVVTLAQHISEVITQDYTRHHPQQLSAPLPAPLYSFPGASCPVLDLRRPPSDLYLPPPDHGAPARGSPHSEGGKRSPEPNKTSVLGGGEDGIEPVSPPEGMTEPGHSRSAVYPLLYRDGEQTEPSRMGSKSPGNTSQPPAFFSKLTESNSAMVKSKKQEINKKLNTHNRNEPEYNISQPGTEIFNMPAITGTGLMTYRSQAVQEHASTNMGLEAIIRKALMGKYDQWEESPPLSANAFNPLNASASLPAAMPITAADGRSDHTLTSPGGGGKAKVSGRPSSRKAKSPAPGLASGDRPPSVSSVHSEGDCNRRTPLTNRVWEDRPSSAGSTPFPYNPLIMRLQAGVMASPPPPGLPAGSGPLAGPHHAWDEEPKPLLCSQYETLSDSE
In another experiment the target is T3, Histone deacetylase 11 (Homo sapiens, UniProt Q96DB2).
T3 sequence (Q96DB2 whole entry): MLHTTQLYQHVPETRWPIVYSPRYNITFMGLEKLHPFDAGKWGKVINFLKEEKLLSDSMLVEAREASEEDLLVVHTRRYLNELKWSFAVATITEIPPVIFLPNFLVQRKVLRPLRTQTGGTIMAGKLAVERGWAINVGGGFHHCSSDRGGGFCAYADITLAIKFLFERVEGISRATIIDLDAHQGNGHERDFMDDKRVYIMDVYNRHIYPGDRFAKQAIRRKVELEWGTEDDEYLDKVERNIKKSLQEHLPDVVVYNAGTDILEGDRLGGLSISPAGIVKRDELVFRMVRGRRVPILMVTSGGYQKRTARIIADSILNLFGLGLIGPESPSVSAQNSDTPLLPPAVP
Kind of experiment: Inhibition of human recombinant HDAC11 using Ac-Leu-Gly-Lys (Ac)-AMC substrate incubated for 30 mins by fluorescence assay.

Experiment [3] concerns the target Histone deacetylase 4 (Homo sapiens) (UniProt P56524). Kind of experiment: Inhibition of human recombinant HDAC4 using Ac-Leu-Gly-Lys (Tfa)-AMC substrate incubated for 30 mins by fluorescence assay.
Another experiment deals with Histone deacetylase 2 (Homo sapiens, UniProt Q92769). Kind of experiment: Inhibition of human recombinant HDAC2 using Ac-Leu-Gly-Lys (Ac)-AMC substrate incubated for 30 mins by fluorescence assay.
Histone deacetylase 2, sequence (Q92769 whole entry): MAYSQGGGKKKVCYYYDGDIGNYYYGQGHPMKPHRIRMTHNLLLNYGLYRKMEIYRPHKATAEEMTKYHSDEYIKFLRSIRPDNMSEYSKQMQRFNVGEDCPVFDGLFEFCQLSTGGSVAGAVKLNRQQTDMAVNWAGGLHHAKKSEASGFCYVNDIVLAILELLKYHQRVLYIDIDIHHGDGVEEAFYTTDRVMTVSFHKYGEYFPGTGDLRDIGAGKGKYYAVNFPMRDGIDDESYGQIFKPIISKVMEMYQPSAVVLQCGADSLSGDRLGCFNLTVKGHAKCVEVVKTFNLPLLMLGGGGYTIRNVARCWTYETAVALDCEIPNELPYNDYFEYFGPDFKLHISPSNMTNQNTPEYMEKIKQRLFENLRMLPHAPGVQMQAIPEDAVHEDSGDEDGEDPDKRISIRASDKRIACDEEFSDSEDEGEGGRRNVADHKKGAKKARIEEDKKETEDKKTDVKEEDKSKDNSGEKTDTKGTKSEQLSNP
In experiment [4] the target is T4, Histone deacetylase 7 (Homo sapiens) (UniProt Q8WUI4).
T4 sequence (whole entry): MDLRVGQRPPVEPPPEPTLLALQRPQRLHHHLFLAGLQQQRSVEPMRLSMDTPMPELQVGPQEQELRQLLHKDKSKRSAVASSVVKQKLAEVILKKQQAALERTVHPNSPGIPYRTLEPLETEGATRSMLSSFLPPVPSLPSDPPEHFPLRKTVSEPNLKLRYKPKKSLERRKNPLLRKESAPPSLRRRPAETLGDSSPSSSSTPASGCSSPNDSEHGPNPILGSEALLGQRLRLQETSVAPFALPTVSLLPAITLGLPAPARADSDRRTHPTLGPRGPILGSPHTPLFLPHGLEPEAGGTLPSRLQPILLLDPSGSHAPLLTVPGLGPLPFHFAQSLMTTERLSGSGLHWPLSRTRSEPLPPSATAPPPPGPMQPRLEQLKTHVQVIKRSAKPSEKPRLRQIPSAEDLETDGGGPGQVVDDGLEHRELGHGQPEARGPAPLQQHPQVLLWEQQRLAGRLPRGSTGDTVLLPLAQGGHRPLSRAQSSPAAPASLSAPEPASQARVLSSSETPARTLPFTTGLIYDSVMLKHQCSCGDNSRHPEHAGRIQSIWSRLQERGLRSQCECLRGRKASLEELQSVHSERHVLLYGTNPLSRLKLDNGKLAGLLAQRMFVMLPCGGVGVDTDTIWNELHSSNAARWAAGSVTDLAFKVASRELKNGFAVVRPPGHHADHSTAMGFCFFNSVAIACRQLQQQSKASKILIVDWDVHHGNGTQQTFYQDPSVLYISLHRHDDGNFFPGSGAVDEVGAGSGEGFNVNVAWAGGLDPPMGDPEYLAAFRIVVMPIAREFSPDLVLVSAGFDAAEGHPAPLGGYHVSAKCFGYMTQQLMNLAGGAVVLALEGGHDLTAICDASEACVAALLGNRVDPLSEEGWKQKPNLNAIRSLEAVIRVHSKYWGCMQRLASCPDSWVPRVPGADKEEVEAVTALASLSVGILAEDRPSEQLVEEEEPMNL
Kind of experiment: Inhibition of human recombinant HDAC7 using Ac-Leu-Gly-Lys (Tfa)-AMC substrate incubated for 30 mins by fluorescence assay.

Experiment [5] addresses Histone deacetylase 5 (Homo sapiens) (UniProt Q9UQL6). Put plainly: Inhibition of human recombinant HDAC5 using Ac-Leu-Gly-Lys (Tfa)-AMC substrate incubated for 30 mins by fluorescence assay.
In experiment [6] the target is Histone deacetylase 9 (Homo sapiens) (UniProt Q9UKV0). Kind of experiment: Inhibition of human recombinant HDAC9 using Ac-Leu-Gly-Lys (Tfa)-AMC substrate incubated for 30 mins by fluorescence assay.
Experiment [7] concerns the target T5, Histone deacetylase 8 (Homo sapiens) (UniProt Q9BY41).
T5 sequence (whole entry): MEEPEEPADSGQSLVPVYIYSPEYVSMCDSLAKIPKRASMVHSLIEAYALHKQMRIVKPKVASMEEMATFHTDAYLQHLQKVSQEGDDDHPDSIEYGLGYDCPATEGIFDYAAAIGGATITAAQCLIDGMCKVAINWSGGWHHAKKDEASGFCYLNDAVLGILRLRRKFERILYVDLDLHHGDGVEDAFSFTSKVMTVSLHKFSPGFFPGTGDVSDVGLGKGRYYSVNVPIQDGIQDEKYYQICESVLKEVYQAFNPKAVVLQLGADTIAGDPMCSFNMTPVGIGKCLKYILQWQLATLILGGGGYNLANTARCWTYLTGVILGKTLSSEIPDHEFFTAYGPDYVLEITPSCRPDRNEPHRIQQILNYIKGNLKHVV
Kind of experiment: Inhibition of human recombinant HDAC8 using Ac-Leu-Gly-Lys (Tfa)-AMC substrate incubated for 30 mins by fluorescence assay.

Experiment [8] has as its target T2, Histone deacetylase 3/Nuclear receptor corepressor 2 (HDAC3/NCoR2). Put plainly: Inhibition of human recombinant HDAC3/NCoR2 using Ac-Leu-Gly-Lys (Ac)-AMC substrate incubated for 30 mins by fluorescence assay. It counts as protein-complex assay.
The test system of another experiment is EB-3. The conditions noted are these: Homo sapiens, at 10 µM.
A short description of experiment [9]: Antiproliferative activity against human EB3 cells assessed as growth inhibition incubated for 3 days by MTT assay. As to conditions: EB-3, 72 h. It counts as functional.
Experiment [10] has as its target T6, Protein deacetylase HDAC6 (Homo sapiens) (UniProt Q9UBN7).
T6 sequence (whole entry): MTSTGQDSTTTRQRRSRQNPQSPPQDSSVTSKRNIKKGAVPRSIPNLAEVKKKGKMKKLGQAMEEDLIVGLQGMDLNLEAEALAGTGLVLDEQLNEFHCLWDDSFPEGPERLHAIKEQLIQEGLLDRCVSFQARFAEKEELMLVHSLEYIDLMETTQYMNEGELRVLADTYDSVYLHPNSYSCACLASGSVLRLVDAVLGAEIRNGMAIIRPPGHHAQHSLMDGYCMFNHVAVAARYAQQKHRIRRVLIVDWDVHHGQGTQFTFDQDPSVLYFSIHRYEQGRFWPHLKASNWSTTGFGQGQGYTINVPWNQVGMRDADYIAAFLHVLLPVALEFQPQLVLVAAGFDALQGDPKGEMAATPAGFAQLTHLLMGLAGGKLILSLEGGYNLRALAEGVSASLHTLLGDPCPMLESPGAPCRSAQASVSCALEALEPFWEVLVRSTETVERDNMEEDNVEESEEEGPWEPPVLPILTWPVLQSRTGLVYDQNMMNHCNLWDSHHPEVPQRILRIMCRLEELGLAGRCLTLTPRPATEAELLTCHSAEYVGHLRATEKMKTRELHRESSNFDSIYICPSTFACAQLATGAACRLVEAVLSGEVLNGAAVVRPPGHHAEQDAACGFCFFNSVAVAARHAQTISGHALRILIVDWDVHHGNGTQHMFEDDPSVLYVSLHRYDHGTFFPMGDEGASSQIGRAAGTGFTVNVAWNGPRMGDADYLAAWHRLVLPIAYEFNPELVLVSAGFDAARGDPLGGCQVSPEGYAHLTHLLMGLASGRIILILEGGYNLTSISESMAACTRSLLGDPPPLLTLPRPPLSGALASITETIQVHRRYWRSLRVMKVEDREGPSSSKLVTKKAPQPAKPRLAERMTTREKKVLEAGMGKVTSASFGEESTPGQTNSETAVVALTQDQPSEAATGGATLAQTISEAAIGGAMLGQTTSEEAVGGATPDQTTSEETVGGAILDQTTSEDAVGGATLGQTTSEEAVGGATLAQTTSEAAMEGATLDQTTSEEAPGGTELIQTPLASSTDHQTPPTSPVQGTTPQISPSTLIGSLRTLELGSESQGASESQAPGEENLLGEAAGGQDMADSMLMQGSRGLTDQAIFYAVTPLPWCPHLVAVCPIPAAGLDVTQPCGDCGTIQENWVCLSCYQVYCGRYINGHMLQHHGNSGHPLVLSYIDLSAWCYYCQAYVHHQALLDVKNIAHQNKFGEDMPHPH
Kind of experiment: Inhibition of human recombinant HDAC6 using Ac-Leu-Gly-Lys (Ac)-AMC substrate incubated for 30 mins by fluorescence assay.

The next experiment addresses Histone deacetylase 1 (Homo sapiens, UniProt Q13547). Put plainly: Inhibition of human recombinant HDAC1 using Ac-Leu-Gly-Lys (Ac)-AMC substrate incubated for 30 mins by fluorescence assay.

Histone deacetylase 1, sequence (Q13547 whole entry): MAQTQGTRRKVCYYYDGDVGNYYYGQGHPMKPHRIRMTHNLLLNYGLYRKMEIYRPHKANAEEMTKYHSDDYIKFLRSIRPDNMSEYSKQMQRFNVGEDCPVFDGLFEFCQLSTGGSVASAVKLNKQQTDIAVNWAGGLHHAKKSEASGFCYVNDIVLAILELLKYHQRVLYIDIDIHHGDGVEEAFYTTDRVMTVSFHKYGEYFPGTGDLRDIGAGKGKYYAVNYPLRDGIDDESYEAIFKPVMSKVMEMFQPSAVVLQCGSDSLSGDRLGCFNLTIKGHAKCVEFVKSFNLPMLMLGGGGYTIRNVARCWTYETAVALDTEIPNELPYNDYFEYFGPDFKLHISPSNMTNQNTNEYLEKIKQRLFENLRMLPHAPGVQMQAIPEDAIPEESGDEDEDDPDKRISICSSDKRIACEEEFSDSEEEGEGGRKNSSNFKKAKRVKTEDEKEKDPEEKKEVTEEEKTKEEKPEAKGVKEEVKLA
Histone deacetylase 4 (Homo sapiens), sequence (P56524 whole entry): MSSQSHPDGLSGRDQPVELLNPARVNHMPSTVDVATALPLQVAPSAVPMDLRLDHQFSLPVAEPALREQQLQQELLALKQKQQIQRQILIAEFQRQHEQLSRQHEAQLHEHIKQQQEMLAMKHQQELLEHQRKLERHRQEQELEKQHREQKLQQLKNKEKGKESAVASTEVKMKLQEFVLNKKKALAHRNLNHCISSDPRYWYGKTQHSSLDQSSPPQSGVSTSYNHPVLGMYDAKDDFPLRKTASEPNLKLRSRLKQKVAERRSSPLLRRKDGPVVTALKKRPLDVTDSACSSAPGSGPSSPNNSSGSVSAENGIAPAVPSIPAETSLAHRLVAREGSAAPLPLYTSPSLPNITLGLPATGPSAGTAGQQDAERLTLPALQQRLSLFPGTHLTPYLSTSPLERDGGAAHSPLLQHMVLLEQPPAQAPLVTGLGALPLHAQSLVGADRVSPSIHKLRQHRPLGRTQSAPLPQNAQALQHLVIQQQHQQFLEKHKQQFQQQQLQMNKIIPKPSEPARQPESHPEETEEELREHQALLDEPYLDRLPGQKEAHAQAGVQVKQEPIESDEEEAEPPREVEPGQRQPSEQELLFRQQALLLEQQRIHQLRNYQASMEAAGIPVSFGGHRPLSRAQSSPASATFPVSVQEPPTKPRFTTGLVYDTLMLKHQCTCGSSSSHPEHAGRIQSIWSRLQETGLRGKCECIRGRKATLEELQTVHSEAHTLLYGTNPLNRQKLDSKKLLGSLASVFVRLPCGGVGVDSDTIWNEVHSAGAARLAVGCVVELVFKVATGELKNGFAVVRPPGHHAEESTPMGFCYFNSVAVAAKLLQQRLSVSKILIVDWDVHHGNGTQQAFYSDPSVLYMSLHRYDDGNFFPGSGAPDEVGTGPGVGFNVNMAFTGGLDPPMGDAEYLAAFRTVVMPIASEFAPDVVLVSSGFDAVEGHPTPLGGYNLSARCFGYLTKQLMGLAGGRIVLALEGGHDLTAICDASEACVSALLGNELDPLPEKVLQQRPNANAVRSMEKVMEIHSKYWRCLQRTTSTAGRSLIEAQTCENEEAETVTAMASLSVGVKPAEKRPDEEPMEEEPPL
Description for EB-3: Antiproliferative activity against human EB3 cells at 10 uM incubated for 3 days by MTT assay

Consider `CCC[C@H]1NC(=O)[C@@H](Cc2ccc(O)cc2)NC(=O)[C@@H](C)NC(=O)[C@@H](C(C)C)NC(=O)[C@H]1C`, for which the Ki – broadly, the equilibrium dissociation constant of an inhibitor or competing ligand from its target – turned out to be 4000 nM in experiment [1]; 780 nM in [2]; 6000 nM on Histone deacetylase 11; 1400 nM on Histone deacetylase 2; 3000 nM in [8]; 2400 nM on Histone deacetylase 1. Further, the inhibition result (in [3]; in experiment [4]; in [5]; in [6]; in [7]; in the experiment on EB-3) was “inactive” in each case. Besides, the inhibition result in experiment [10] was “inactive”. In [9], the GI50 (usually the concentration at which growth is held to half of that of the control) was over 50000 nM.
On to `CC(C)[C@H]1NC(=O)[C@@H](C)[C@@H](C/C=C\CCC(N)=O)NC(=O)[C@@H](Cc2ccc(O)cc2)NC(=O)[C@@H](C)NC1=O` [AZUMAMIDE B], for which the inhibition entry in the experiment with EB-3 was “inactive”. In addition, the 50% growth inhibitory concentration (GI50) in [9] was over 50000 nM.
As for `CC(C)[C@H]1NC(=O)[C@@H](C)[C@@H](C/C=C\CCC(=O)O)NC(=O)[C@@H](Cc2ccc(O)cc2)NC(=O)[C@@H](C)NC1=O` [AZUMAMIDE C], the inhibitory constant (Ki) in experiment [1] stood at 20 nM; in [2], 9.67 nM; at Histone deacetylase 11, 60 nM; at Histone deacetylase 2 it was 10 nM; in experiment [8] it was 18 nM; at Histone deacetylase 1, 20 nM. In the experiment with EB-3, the inhibition entry was “inactive”. The GI50 in experiment [9] is over 25000 nM.
`CCC(=O)CCCCC[C@@H]1NC(=O)[C@H]2CCCCN2C(=O)[C@H]([C@@H](C)CC)NC(=O)[C@H](Cc2cn(OC)c3ccccc23)NC1=O` [APICIDIN]: the inhibition result in the experiment on EB-3 was “Active”. Besides, the GI50 in [9] was 800 nM.

(Values after ChEMBL document CHEMBL3621147, “An azumamide C analogue without the zinc-binding functionality” (Medchemcomm, 2014).)
